This is an account of results in patent US20090093448A1, “19-NOR-PROGESTERONE FOR CONTRACEPTION” (GRUNENTHAL GMBH, priority 2007, published 2009).

Structures are written as SMILES. Structures can show the parent of a compound that is named as a salt.

In experiment [1] the target is T1, human progesterone receptor (Homo sapiens, UniProt P06401).
T1 sequence (P06401 1-933): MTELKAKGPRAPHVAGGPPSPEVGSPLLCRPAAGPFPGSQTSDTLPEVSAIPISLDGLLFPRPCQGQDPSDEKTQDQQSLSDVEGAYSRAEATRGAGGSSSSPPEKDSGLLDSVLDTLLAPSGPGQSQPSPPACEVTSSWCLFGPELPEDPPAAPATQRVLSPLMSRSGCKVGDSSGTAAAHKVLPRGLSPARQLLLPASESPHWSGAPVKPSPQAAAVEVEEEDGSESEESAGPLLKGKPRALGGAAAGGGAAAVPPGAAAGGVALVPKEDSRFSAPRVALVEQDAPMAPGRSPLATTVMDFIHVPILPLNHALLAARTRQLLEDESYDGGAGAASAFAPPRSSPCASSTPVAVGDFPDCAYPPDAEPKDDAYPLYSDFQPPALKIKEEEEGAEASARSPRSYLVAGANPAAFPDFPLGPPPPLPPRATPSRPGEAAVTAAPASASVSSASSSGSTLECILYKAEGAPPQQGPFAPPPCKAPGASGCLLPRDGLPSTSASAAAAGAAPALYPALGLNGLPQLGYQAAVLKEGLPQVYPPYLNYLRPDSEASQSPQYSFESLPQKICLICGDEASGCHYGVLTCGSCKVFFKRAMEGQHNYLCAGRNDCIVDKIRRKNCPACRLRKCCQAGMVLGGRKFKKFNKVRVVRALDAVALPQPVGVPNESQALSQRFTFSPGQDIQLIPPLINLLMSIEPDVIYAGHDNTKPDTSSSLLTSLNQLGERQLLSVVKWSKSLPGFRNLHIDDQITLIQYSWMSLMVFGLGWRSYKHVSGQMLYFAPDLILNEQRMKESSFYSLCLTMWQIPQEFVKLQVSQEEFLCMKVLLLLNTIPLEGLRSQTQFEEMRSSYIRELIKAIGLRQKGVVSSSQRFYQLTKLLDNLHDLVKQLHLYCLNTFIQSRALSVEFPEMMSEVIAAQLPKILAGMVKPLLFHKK
The experiment is described as follows: Relative binding affinity for the human progesterone receptor. The note with it: for Relative binding affinity to progesterone receptor: progesterone as reference = 100.

Another experiment concerns endometrium. The experiment is described as follows: McPhail test (progestational proliferation of the endometrium). Type of experiment: in vivo, rabbits. The following applies: for Mean McPhail Score (max. 4.0): estrone-primed immature female rabbits, five daily doses. The method, then:
Trimegestone sulfate was tested in the McPhail test, which is a test for progesterone and like substances. Immature female rabbits are treated with 150 IU of estrone over a period of 6 days. The test material is then given in five daily subcutaneous doses. Progestational proliferation of the endometrium is noted and the results estimated according to a scale from 0 to 4.0.

In the case of `CC(O)C(=O)C1(C)CCC2C3CC(O)C4=CC(=O)CCC4=C3CCC21C` (stereo not drawn) [6β-OH trimegestone, 6β-hydroxytrimegestone, reference compound], the “Relative binding affinity to progesterone receptor” value (“Relative binding affinity” for short) in experiment [1] is 12.
On to `C[C@H](OS(=O)(=O)O)C(=O)[C@@]1(C)CCC2C3CCC4=CC(=O)CCC4=C3CC[C@@]21C` (stereo partly shown) [Trimegestone sulfate, Trimegestone sulfate, pyridinium salt], for which the “Mean McPhail Score (max. 4.0)” value in the experiment with endometrium (0.0001 mg/kg/day s.c.) stood at 0.75; with endometrium (0.001 mg/kg/day s.c.), 0.88; with endometrium (0.01 mg/kg/day s.c.), 2.1; in the experiment with endometrium (0.1 mg/kg/day s.c.) it was 3.31; in the experiment with endometrium (1.0 mg/kg/day s.c.), 2.93; in the experiment on endometrium (10.0 mg/kg/day s.c.), 3.68. Besides, the “endometrium transforming effects in the McPhail test” value in the experiment with endometrium (s.c., 0.0001 to 10.0 mg/kg/day, result in words) is given as “dose-dependent potent endometrium transforming effects”. Moreover, the “relative affinity for the progesterone receptor” value in experiment [1] (% of the affinity of natural progesterone) is reported as 40%. For the same compound, the “Relative binding affinity” value in experiment [1] is 40.
For the compound `CC(O)C(=O)C1(C)CCC2C3CCC4=CC(=O)CC(O)C4=C3CCC21C` (stereo not drawn) [1β-OH trimegestone, 1β-hydroxytrimegestone, reference compound], the “Relative binding affinity” value in experiment [1] was 64.
In the case of `CC(=O)[C@H]1CC[C@H]2[C@@H]3CCC4=CC(=O)CC[C@]4(C)[C@H]3CC[C@]12C` [Progesterone], the figures for the “Mean McPhail Score (max. 4.0)” value in the experiment with endometrium (0.1 mg/kg/day s.c.) and in the experiment with endometrium (1.0 mg/kg/day s.c.) were 2.25 and 3.75, respectively.
